Assay results reported in patent US8853424B2 (Japan Science and Technology Agency, priority 2008, dated 2014).

What was measured:
transglutaminase (TGase) = assay: Measurement of TG (TGase inhibitory activity, monodansyl cadaverine / N,N-dimethylcasein fluorescence, FDSS 3000); format: biochemical
In short: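 Compound (1 μL of 10 mM stock) added to 0.1 mL reaction: 100 mM HEPES-NaOH pH 7.5, 1 mM CaCl2, 20 μM monodansyl cadaverine, 0.05 mg/mL N,N-dimethylcasein, 5 μg/mL TGase. Rate of fluorescence change at 340 nm measured; DMSO control set to 100; TG50 is the concentration halving activity.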

[1] = tested on: Truncated N-terminal huntington 150 Q-EGFP-Neuron 2a cells; assay: Measurement of x-Fold (polyglutamine aggregation inhibitory activity); format: cell-based
Method: In the present invention, the polyglutamine aggregation inhibitory activity (x-Fold) can be measured, for example, by the method described in the Example.
The number of the aggregated cells, and the total number of cells were counted by Array Scan V T1 (manufactured by Cellomics, Pittuburg, USA), and the ratio of the aggregated cells to the total number of cells was determined (x-Fold). […]

[2] = TGase activity with compound (10 mM, 1 μL in 0.1 ml enzyme reaction solution), DMSO control taken as 100
[3] = ratio of aggregated cells to total number of cells, compound 20 μM, 20 hr, almost 1 without compound, smaller = stronger inhibition
[4] = TGase inhibitory activity value, Table 1
[5] = polyglutamine aggregation inhibitory activity, Table 1
[6] = TGase inhibitory activity measurement, unit not given
[7] = polyglutamine aggregation, Truncated N-terminal huntington 150 Q-EGFP-Neuron 2a cells

Molecule	TGase activity remaining (% of DMSO control = 100) (transglutaminase (TGase); [2])	x-Fold [1, 3]	TGase activity remaining (% of DMSO control = 100) (transglutaminase (TGase); TGase inhibitory activity value, Table 1, listed as 6001)	x-Fold ([1]; polyglutamine aggregation inhibitory activity, Table 1, listed as 6001)	TGase activity remaining (% of DMSO control = 100) (transglutaminase (TGase); [4])	x-Fold [1, 5]	TGase activity remaining (% of DMSO control = 100) (transglutaminase (TGase); [6])	x-Fold [1, 7]	TGase activity remaining (% of DMSO control = 100) (transglutaminase (TGase); TGase inhibitory activity value, Table 1, listed as 6095)	x-Fold ([1]; polyglutamine aggregation inhibitory activity, Table 1, listed as 6095)
NC(=O)CC(N)C(=O)OB(c1ccccc1)c1ccc(Oc2ccc(B(OC(=O)C(N)CC(N)=O)c3ccccc3)cc2)cc1 (stereo not drawn) [Example 390, bis(4,4′-(phenyl-asparagineboryl)phenyl)ether]	56	0.59								
OB(c1ccc(C(F)(F)F)cc1)c1ccc(C(F)(F)F)cc1 [Example 75, bis(4-trifluoromethylphenyl)borinic acid]	97	0.88	97	0.88						
OB(c1ccc(COCc2ccc(B(O)c3ccc(C(F)(F)F)cc3)cc2)cc1)c1ccc(C(F)(F)F)cc1 [Example 143, bis(4-trifluoromethylphenylhydroxyboryl 4-benzyl)ether]	118	0.90			118	0.90				
Cc1cc(B(OCCN)c2ccccc2)cc(B(OCCN)c2ccccc2)c1 [Example 357, 3,5-di(phenylaminoethoxyboryl)toluene]	89	1.03			89	1.03				
NCCSB(c1ccc(Cl)cc1F)c1ccc(Cl)cc1F [Example 1, 2-aminoethylthio bis(4-chloro-2-fluorophenyl)borane]	28	0.95			28	0.95				
4,4′-(phenyl piperazino-O,O-ethoxyboryl)benzylether [Example 197]	99	1.02			99	1.02				
NCCC(N)C(=O)OB(c1ccccc1)c1ccc(COCc2ccc(B(OC(=O)C(N)CCN)c3ccccc3)cc2)cc1 (stereo not drawn) [Example 453, bis(4,4′-(phenyl-2,4-diaminobutyrateboryl)benzyl)ether]	113	1.04					113	1.04		
c1ccc(B2OCCN3CCN(CCOB(c4ccccc4)c4cccc(c4)COCc4cccc2c4)CC3)cc1 [Example 173, (3,3′-(phenylpiperazino-O,O-ethoxyboryl)benzyl)ether]	122	1.06			122	1.06				
OB(c1ccccc1)c1cc(B(O)c2ccccc2)cc(B(O)c2ccccc2)c1 [Example 130, 1,3,5-tri(phenylhydroxyboryl)benzene]	116	0.85			116	0.85				
O=C(OB(c1ccccc1)c1ccccc1)c1ccccn1 [Example 218, diphenyl(picolinate-O,N)borane]	90	0.97			90	0.97				
c1ccc(B(OB(c2ccccc2)c2ccccc2)c2ccccc2)cc1 [Example 217, diphenylborinic acid anhydride]	118	0.94			118	0.94				
CCCNCCOB(c1ccc(C(F)(F)F)cc1)c1ccc(C(F)(F)F)cc1 [Example 188, di(trifluoromethylphenyl) 2-propylaminoethylborinate]	91	0.98								
NCCCCC(N)C(=O)OB(c1ccccc1)c1ccc(Oc2ccc(B(OC(=O)C(N)CCCCN)c3ccccc3)cc2)cc1 (stereo not drawn) [Example 437, bis(4,4′-(phenyl-lysineboryl)phenyl)ether]	119	0.85					119	0.85		
NCCNCCOB(c1ccccc1)c1ccc(COCc2ccc(B(OCCNCCN)c3ccccc3)cc2)cc1 [Example 399, bis(4,4′-(phenyl-N-aminoethyl-aminoethoxyboryl)benzyl)ether]	53	0.96					53	0.96		
c1cc(B(OCC2CCCN2)c2ccc3sc4ccc(B(OCC5CCCN5)c5ccsc5)cc4c3c2)cs1 (stereo not drawn) [Example 389, 2,8-di(3-thiophenyl-2-pyrrolidinomethoxyboryl)dibenzothiophene]	81	0.83			81	0.83				
Cc1ccc(B(OCCC2CCCCN2)c2ccc(C)c(Cl)c2)cc1Cl (stereo not drawn) [Example 248]	103	0.87								
OB(c1ccccc1)c1ccc(-c2ccc(B(O)c3ccccc3)cc2)cc1 [Example 140, 4,4′-phenylhydroxyboryl 4-biphenyl]	−72	0.85			−72	0.85				
CNCCOB(c1ccccc1)c1ccc(Oc2ccc(B(OCCNC)c3ccc(COCOC)cc3)cc2)cc1 [Example 168, (4-(phenyl-N-methylaminoethoxyboryl)phenyl)-(4′-(methoxymethoxymethylphenyl-N-methylaminoethoxyboryl)phenyl)ether]	35	0.72			35	0.72				
NCCC(N)C(=O)OB(c1ccc(Oc2ccc(B(OC(=O)C(N)CCN)c3cccc4ccccc34)cc2)cc1)c1cccc2ccccc12 (stereo not drawn) [Example 445, bis(4,4′-(naphthyl 2,4-diaminopropionic acid boryl)phenyl)ether]	108	0.49					108	0.49		
Cc1ccc(Cl)cc1B(OC(=O)C(N)CCCNC(N)=O)c1cc(Cl)ccc1C (stereo not drawn) [Example 160, di(3-chloro-6-methyl-phenyl)(citrullinate-O,N)borane]	88	1.02			88	1.02				
COc1ccc(B(OCCN(C)C)c2ccc(COCc3ccc(B(OCCN(C)C)c4ccc(OC)cc4)cc3)cc2)cc1 [Example 414, bis(4,4′-(p-methoxyphenyl-N,N-dimethylaminoethoxyboryl)benzyl)ether]	128	0.90					128	0.90		
OB(c1ccc(F)c(F)c1)c1ccc(F)c(F)c1 [Example 80, bis(3,4-difluorophenyl)borinic acid]	93	0.90			93	0.90				
NCC(N)C(=O)OB(c1ccccc1)c1ccc(Oc2ccc(B(OC(=O)C(N)CN)c3ccccc3)cc2)cc1 (stereo not drawn) [Example 436, bis(4,4′-(phenyl-2,3-diaminopropionic acid boryl)phenyl)ether]	104	0.85				0.73	104	0.85		
OB(c1ccc(Cl)cc1F)c1ccc(Cl)cc1F [Example 79, bis(4-chloro-2-fluorophenyl)borinic acid]	97	0.88			97	0.88				
N#Cc1ccc(B(O)c2ccc(C#N)cc2)cc1 [Example 305, 4,4′-di(cyano-phenyl)borinic acid]	94	0.98							94	0.98
c1ccc(B(OC(c2ccccc2)c2ccccn2)c2ccccc2COCc2ccccc2B(OC(c2ccccc2)c2ccccn2)c2ccccc2)cc1 (stereo not drawn) [Example 133, (2-pyridyl-phenylmethoxyphenylboryl 2-benzyl)ether]	106	1.00			106	1.00				
OB(O)c1ccc(F)c(Cl)c1 [Example 145, (3-chloro-4-fluorophenyl)boronic acid]	97	0.91			97	0.91				
NCCOB(c1ccccc1)c1cccc(B(OCCN)c2ccccc2)c1 [Example 120, 1,3-bis(phenyl-2-aminoethoxyboryl)benzene]	88	1.08			88	1.08				
Cc1cc(B(OCCN)c2ccc(COCc3ccc(B(OCCN)c4ccc(Cl)c(C)c4)cc3)cc2)ccc1Cl [Example 339]	115	0.91			115	0.91				
